Data taken from US8926082B2, “Optically polymerizable ink jet ink, ink cartridge, and printer” (Ricoh Company, Ltd., priority 2011, dated 2015).

Assays:
[1] = "negative" or "none": SI value naturally less than 3; cited from earlier work
[2] = skin sensitization test by Local Lymph Node Assay (LLNA), Stimulation Index; format: in vivo; details: SI less than 3 = no problem
Description: However, inkjet ink in which such compounds are blended to provide a curing property sufficient for practical use has a relatively high viscosity in comparison with typical optical polymerizable inkjet ink. Therefore, for example, if a desirable high image density is to be obtained by increasing the blend ratio of a pigment, such inkjet ink requires an extra decrease in the viscosity to achieve stable ejection.
The Local Lymph Node Assay (LLNA) method is a skin sensitization test defined as OECD Test Guideline 429 and as described in documents such as an issue of September 2005, Vol. 25, No. 9, p 55, published by CMC Publishing Co., Ltd., when a compound has a Stimulation Index (SI) of less than 3, which is an indicator of the degree of […], the compound is determined to have no problem with regard to the skin sensitization.
The details of A1 to A14, B1 and B2, C1 and C2, and D1 in Tables 1 to 8 are as follows: The value in the parentheses at the end of A1 to A14 is an SI value. “negative” or “none” means evaluation of skin sensitization as “negative” or “none” in the MSDS sheet in which the SI value is naturally less than 3.

Compound | evaluation of skin sensitization in the MSDS sheet [1] | SI value (Stimulation Index) [2]
Caprolactone-modified dipentaerythritol hexaacrylate [Example A7] | negative | –
C=C(C)C(=O)OC1CCOC1=O (stereo not drawn) [Example A4, γ-butylo lactone methacrylate] | – | 2.1
C=CC(=O)NCCO [Example A11, Hydroxyethyl acrylamide] | None | –
